{"source": "the supplement of paper PMC10307832", "test_in_all_cases": "relative viability (nuclei count vs DMSO), 5 days (fraction); higher = more cells survive", "key": {"[1]": {"test_system": "NCI-H596", "how_it_was_run": "(§1)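 Values are medians from duplicate plates. Each reflects relative viability, defined as the nuclei count of treated wells over that of vehicle wells. Lung cancer cell lines in 1536-well plates were pin-tool dosed one day after seeding with one drug alone or with a fixed anchor-drug dose plus five library-drug doses (not always all listed) in √10 steps, then fixed, stained and imaged at 4× after 5 days.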"}, "[2]": {"test_system": "H3255", "how_it_was_run": "as §1"}, "[3]": {"test_system": "NCI-H1650", "how_it_was_run": "as §1"}, "[4]": {"test_system": "SK-LU-1", "how_it_was_run": "as §1"}, "[5]": {"test_system": "NCI-H3122", "how_it_was_run": "as §1"}, "[6]": {"test_system": "NCI-H322M", "how_it_was_run": "as §1"}, "[7]": {"test_system": "NCI-H1755", "how_it_was_run": "as §1"}, "[8]": {"test_system": "NCI-H23", "how_it_was_run": "as §1"}, "[9]": {"test_system": "HCC-78", "how_it_was_run": "as §1"}, "[10]": {"test_system": "NCI-H2087", "how_it_was_run": "as §1"}, "[11]": {"test_system": "201T", "how_it_was_run": "as §1"}, "[12]": {"test_system": "NCI-H650", "how_it_was_run": "as §1"}, "[13]": {"test_system": "NCI-H2085", "how_it_was_run": "as §1"}, "[14]": {"test_system": "HCC-366", "how_it_was_run": "as §1"}, "[15]": {"test_system": "LU99A", "how_it_was_run": "as §1"}, "[16]": {"test_system": "COR-L23", "how_it_was_run": "as §1"}, "[17]": {"test_system": "HARA", "how_it_was_run": "as §1"}, "[18]": {"test_system": "NCI-H1651", "how_it_was_run": "as §1"}, "[19]": {"test_system": "PC-3 [JPC-3]", "how_it_was_run": "as §1"}, "[20]": {"test_system": "NCI-H460", "how_it_was_run": "as §1"}}, "data": [{"smiles": "Cc1csc(=NC2CCCCC2)n1/N=C/c1ccc(O)c(O)c1O", "note": "[MIM1] + CC(C)C[C@H](NC(=O)[C@H](Cc1ccccc1)NC(=O)c1cnccn1)B(O)O [Bortezomib] (partner 0.002 µM)", "values": [{"measurement": "relative viability", "setting": "[1]; first compound 0.6325 µM", "value": 1.16}, {"measurement": "relative viability", "setting": "[1]; first compound 2 µM", "value": 0.988}, {"measurement": "relative viability", "setting": "[1]; first compound 6.325 µM", "value": 0.999}, {"measurement": "relative viability", "setting": "[1]; first compound 20 µM", "value": 0.951}, {"measurement": "relative viability", "setting": "[2]; first compound 0.2 µM", "value": 0.861}, {"measurement": "relative viability", "setting": "[2]; first compound 0.6325 µM", "value": 0.634}, {"measurement": "relative viability", "setting": "[2]; first compound 2 µM", "value": 0.666}, {"measurement": "relative viability", "setting": "[2]; first compound 6.325 µM", "value": 0.538}, {"measurement": "relative viability", "setting": "[2]; first compound 20 µM", "value": 0.24}, {"measurement": "relative viability", "setting": "[3]; first compound 0.2 µM", "value": 0.263}, {"measurement": "relative viability", "setting": "[3]; first compound 0.6325 µM", "value": 0.204}, {"measurement": "relative viability", "setting": "[3]; first compound 2 µM", "value": 0.188}, {"measurement": "relative viability", "setting": "[3]; first compound 6.325 µM", "value": 0.212}, {"measurement": "relative viability", "setting": "[3]; first compound 20 µM", "value": 0.165}, {"measurement": "relative viability", "setting": "[4]; first compound 0.2 µM", "value": 1.05}, {"measurement": "relative viability", "setting": "[4]; first compound 0.6325 µM", "value": 1.09}, {"measurement": "relative viability", "setting": "[4]; first compound 2 µM", "value": 1.09}, {"measurement": "relative viability", "setting": "[4]; first compound 6.325 µM", "value": 0.962}, {"measurement": "relative viability", "setting": "[4]; first compound 20 µM", "value": 0.947}, {"measurement": "relative viability", "setting": "[5]; first compound 0.2 µM", "value": 1}, {"measurement": "relative viability", "setting": "[5]; first compound 0.6325 µM", "value": 1.06}, {"measurement": "relative viability", "setting": "[5]; first compound 2 µM", "value": 0.999}, {"measurement": "relative viability", "setting": "[5]; first compound 6.325 µM", "value": 0.986}, {"measurement": "relative viability", "setting": "[5]; first compound 20 µM", "value": 0.235}, {"measurement": "relative viability", "setting": "[6]; first compound 0.2 µM", "value": 1.21}, {"measurement": "relative viability", "setting": "[6]; first compound 0.6325 µM", "value": 1.2}, {"measurement": "relative viability", "setting": "[6]; first compound 2 µM", "value": 1.35}, {"measurement": "relative viability", "setting": "[6]; first compound 6.325 µM", "value": 1.17}, {"measurement": "relative viability", "setting": "[6]; first compound 20 µM", "value": 1.08}, {"measurement": "relative viability", "setting": "[7]; first compound 0.2 µM", "value": 0.954}, {"measurement": "relative viability", "setting": "[7]; first compound 0.6325 µM", "value": 0.949}, {"measurement": "relative viability", "setting": "[7]; first compound 2 µM", "value": 0.893}, {"measurement": "relative viability", "setting": "[7]; first compound 6.325 µM", "value": 0.776}, {"measurement": "relative viability", "setting": "[7]; first compound 20 µM", "value": 0.377}, {"measurement": "relative viability", "setting": "[8]; first compound 0.2 µM", "value": 1.08}, {"measurement": "relative viability", "setting": "[8]; first compound 2 µM", "value": 0.702}, {"measurement": "relative viability", "setting": "[8]; first compound 6.325 µM", "value": 0.851}, {"measurement": "relative viability", "setting": "[8]; first compound 20 µM", "value": 0.167}, {"measurement": "relative viability", "setting": "[9]; first compound 0.2 µM", "value": 0.491}, {"measurement": "relative viability", "setting": "[9]; first compound 0.6325 µM", "value": 0.555}, {"measurement": "relative viability", "setting": "[9]; first compound 2 µM", "value": 0.559}, {"measurement": "relative viability", "setting": "[9]; first compound 6.325 µM", "value": 0.418}, {"measurement": "relative viability", "setting": "[9]; first compound 20 µM", "value": 0.4}, {"measurement": "relative viability", "setting": "[10]; first compound 0.2 µM", "value": 0.753}, {"measurement": "relative viability", "setting": "[10]; first compound 0.6325 µM", "value": 0.743}, {"measurement": "relative viability", "setting": "[10]; first compound 2 µM", "value": 0.666}, {"measurement": "relative viability", "setting": "[10]; first compound 6.325 µM", "value": 0.586}, {"measurement": "relative viability", "setting": "[10]; first compound 20 µM", "value": 0.498}, {"measurement": "relative viability", "setting": "[11]; first compound 0.2 µM", "value": 1.09}, {"measurement": "relative viability", "setting": "[11]; first compound 0.6325 µM", "value": 1.08}, {"measurement": "relative viability", "setting": "[11]; first compound 2 µM", "value": 1.08}, {"measurement": "relative viability", "setting": "[11]; first compound 6.325 µM", "value": 0.779}, {"measurement": "relative viability", "setting": "[11]; first compound 20 µM", "value": 0.82}, {"measurement": "relative viability", "setting": "[12]; first compound 0.2 µM", "value": 0.769}, {"measurement": "relative viability", "setting": "[12]; first compound 0.6325 µM", "value": 0.73}, {"measurement": "relative viability", "setting": "[12]; first compound 2 µM", "value": 0.682}, {"measurement": "relative viability", "setting": "[12]; first compound 6.325 µM", "value": 0.832}, {"measurement": "relative viability", "setting": "[12]; first compound 20 µM", "value": 0.296}, {"measurement": "relative viability", "setting": "[13]; first compound 0.2 µM", "value": 1.08}, {"measurement": "relative viability", "setting": "[13]; first compound 0.6325 µM", "value": 0.994}, {"measurement": "relative viability", "setting": "[13]; first compound 2 µM", "value": 0.986}, {"measurement": "relative viability", "setting": "[13]; first compound 6.325 µM", "value": 0.952}, {"measurement": "relative viability", "setting": "[13]; first compound 20 µM", "value": 0.989}, {"measurement": "relative viability", "setting": "[14]; first compound 0.2 µM", "value": 1.02}, {"measurement": "relative viability", "setting": "[14]; first compound 0.6325 µM", "value": 0.994}, {"measurement": "relative viability", "setting": "[14]; first compound 2 µM", "value": 0.793}, {"measurement": "relative viability", "setting": "[14]; first compound 6.325 µM", "value": 0.998}, {"measurement": "relative viability", "setting": "[14]; first compound 20 µM", "value": 0.0323}, {"measurement": "relative viability", "setting": "[15]; first compound 0.2 µM", "value": 1.08}, {"measurement": "relative viability", "setting": "[15]; first compound 0.6325 µM", "value": 1.08}, {"measurement": "relative viability", "setting": "[15]; first compound 2 µM", "value": 1.1}, {"measurement": "relative viability", "setting": "[15]; first compound 6.325 µM", "value": 0.987}, {"measurement": "relative viability", "setting": "[15]; first compound 20 µM", "value": 0.341}, {"measurement": "relative viability", "setting": "[16]; first compound 0.2 µM", "value": 1.02}, {"measurement": "relative viability", "setting": "[16]; first compound 0.6325 µM", "value": 1.04}, {"measurement": "relative viability", "setting": "[16]; first compound 2 µM", "value": 0.969}, {"measurement": "relative viability", "setting": "[16]; first compound 6.325 µM", "value": 0.659}, {"measurement": "relative viability", "setting": "[16]; first compound 20 µM", "value": 0.418}, {"measurement": "relative viability", "setting": "[17]; first compound 0.2 µM", "value": 1.09}, {"measurement": "relative viability", "setting": "[17]; first compound 0.6325 µM", "value": 1.1}, {"measurement": "relative viability", "setting": "[17]; first compound 2 µM", "value": 1.2}, {"measurement": "relative viability", "setting": "[17]; first compound 6.325 µM", "value": 1.08}, {"measurement": "relative viability", "setting": "[17]; first compound 20 µM", "value": 0.127}, {"measurement": "relative viability", "setting": "[18]; first compound 0.2 µM", "value": 0.92}, {"measurement": "relative viability", "setting": "[18]; first compound 0.6325 µM", "value": 0.823}, {"measurement": "relative viability", "setting": "[18]; first compound 2 µM", "value": 0.875}, {"measurement": "relative viability", "setting": "[18]; first compound 6.325 µM", "value": 0.887}, {"measurement": "relative viability", "setting": "[18]; first compound 20 µM", "value": 0.685}, {"measurement": "relative viability", "setting": "[19]; first compound 0.2 µM", "value": 0.862}, {"measurement": "relative viability", "setting": "[19]; first compound 0.6325 µM", "value": 0.7}, {"measurement": "relative viability", "setting": "[19]; first compound 2 µM", "value": 0.77}, {"measurement": "relative viability", "setting": "[19]; first compound 6.325 µM", "value": 0.703}, {"measurement": "relative viability", "setting": "[19]; first compound 20 µM", "value": 0.496}, {"measurement": "relative viability", "setting": "[20]; first compound 0.2 µM", "value": 1.12}, {"measurement": "relative viability", "setting": "[20]; first compound 0.6325 µM", "value": 1.26}, {"measurement": "relative viability", "setting": "[20]; first compound 2 µM", "value": 0.604}, {"measurement": "relative viability", "setting": "[20]; first compound 6.325 µM", "value": 0.467}, {"measurement": "relative viability", "setting": "[20]; first compound 20 µM", "value": 0.0328}]}]}
